Some test systems named below: SNB-19 CNS; UACC-62 melanoma; HCT-15 colon; BT-549 breast; NCI/ADR-RES ovarian; SF-268 CNS; HT29 colon; SK-MEL-28 melanoma; LOX IMVI melanoma; UO-31 renal; NCI-H460 lung; SK-OV-3 ovarian; PC-3 prostate; OVCAR-4 ovarian; 786-0 renal; CAKI-1 renal; MDA-MB-435; HOP-92 NSCLC; HCT-116 colon; MOLT-4 leukemia.
Common to all, as to assay: NCI-60 cell line screen, 48 h

Molecules are shown by their SMILES.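 Dose response: 5 concentrations. Exposure: 48 h. Format: 96-well plates. Endpoint: linear interpolation; highest concentration if not reached. TGI: total growth inhibition.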

For the molecule `Cc1n[nH]c(=O)n1/N=C/c1cccnc1`, the TGI in the test on SNB-19 CNS, in the test on UACC-62 melanoma, in the test with HCT-15 colon, in the test with BT-549 breast, with NCI/ADR-RES ovarian and in the test with SF-268 CNS was more than 100 µM each time. Moreover, the TGI with HT29 colon, in the test on SK-MEL-28 melanoma, with LOX IMVI melanoma, in the test on UO-31 renal, with NCI-H460 lung and in the test on SK-OV-3 ovarian was more than 100 µM each time. Besides, the TGI in the test with PC-3 prostate, with OVCAR-4 ovarian, with 786-0 renal, with CAKI-1 renal, in the test on MDA-MB-435 and with HOP-92 NSCLC was more than 100 µM each time. Moreover, the TGI with HCT-116 colon and in the test with MOLT-4 leukemia was more than 100 µM in each case.

Regarding `C=C1CC(COc2ccc3ccc(=O)oc3c2)(c2ccccc2)OC1=O` (stereo not given), the TGI in the test on SNB-19 CNS is 28.5 µM; in the test with UACC-62 melanoma, 2.92 µM; in the test with HCT-15 colon it was 4.13 µM; with BT-549 breast, 2.95 µM; with NCI/ADR-RES ovarian, 12.4 µM; in the test with SF-268 CNS it was 11.9 µM. The TGI in the test on HT29 colon stood at 2.27 µM; in the test on SK-MEL-28 melanoma, 6.12 µM; with LOX IMVI melanoma, 2.57 µM; in the test on UO-31 renal it was 9.76 µM; in the test on NCI-H460 lung, 28 µM; in the test on SK-OV-3 ovarian, 16.1 µM. Further, the TGI in the test with PC-3 prostate was 7.58 µM; in the test on OVCAR-4 ovarian, 3.22 µM; in the test with 786-0 renal, 2.84 µM; with CAKI-1 renal, 2.52 µM; in the test on MDA-MB-435, 7.82 µM; in the test on HOP-92 NSCLC, 2.15 µM. The TGI with HCT-116 colon came out at 2 µM; in the test on MOLT-4 leukemia it was 4.16 µM.

In the case of `CNC(=S)NNC1=NCCCCN1`, the TGI in the test on SNB-19 CNS, in the test with UACC-62 melanoma, in the test on HCT-15 colon, in the test with BT-549 breast, in the test on NCI/ADR-RES ovarian and in the test on SF-268 CNS was more than 100 µM each time. Besides, the TGI in the test on HT29 colon, in the test with SK-MEL-28 melanoma, in the test on LOX IMVI melanoma, in the test with UO-31 renal, in the test on NCI-H460 lung and in the test with SK-OV-3 ovarian was more than 100 µM throughout. Further, the TGI in the test with PC-3 prostate, with OVCAR-4 ovarian, in the test with 786-0 renal, in the test with CAKI-1 renal, with MDA-MB-435 and with HOP-92 NSCLC was more than 100 µM in each case. In addition, the TGI in the test on HCT-116 colon and in the test with MOLT-4 leukemia was more than 100 µM each time.

In the case of `CC(Oc1ccc(Cl)cc1Cl)C(=O)NN1C(=O)CSC1c1ccc(Cl)cc1` (stereo not given), the TGI in the test with SNB-19 CNS, in the test with UACC-62 melanoma, with HCT-15 colon, in the test on BT-549 breast, with NCI/ADR-RES ovarian and in the test on SF-268 CNS was more than 100 µM each time. Also, the TGI in the test on HT29 colon, in the test with SK-MEL-28 melanoma, in the test with LOX IMVI melanoma, in the test with UO-31 renal, in the test on NCI-H460 lung and with SK-OV-3 ovarian was more than 100 µM each time. In addition, the TGI with PC-3 prostate is more than 100 µM; in the test with OVCAR-4 ovarian, more than 100 µM; with 786-0 renal, more than 100 µM; in the test on CAKI-1 renal, 34.2 µM; in the test on MDA-MB-435 it was more than 100 µM; in the test on HOP-92 NSCLC, 66.3 µM. Also, the TGI is more than 100 µM in the test on HCT-116 colon and 80.1 µM in the test with MOLT-4 leukemia.

Turning to `CC(=C(C(=O)O)C(=O)O)c1cc(-c2cccs2)cc(-c2ccc(Cl)cc2)c1O`, the TGI stood at 37.1 µM with SNB-19 CNS; 35.7 µM with UACC-62 melanoma; 37.5 µM in the test on HCT-15 colon; 34.4 µM in the test on BT-549 breast; 57.2 µM in the test with NCI/ADR-RES ovarian; 54.9 µM with SF-268 CNS. The TGI was 40.5 µM in the test on HT29 colon; 36.3 µM in the test on SK-MEL-28 melanoma; 29.6 µM in the test with LOX IMVI melanoma; 24.5 µM in the test with UO-31 renal; 37.3 µM in the test on NCI-H460 lung; more than 82.5 µM in the test with SK-OV-3 ovarian. Moreover, the TGI in the test with PC-3 prostate is 28.3 µM; in the test with OVCAR-4 ovarian it was more than 71.9 µM; in the test with 786-0 renal, 32.2 µM; in the test with CAKI-1 renal it was 40.6 µM; in the test with MDA-MB-435, 35.1 µM; with HOP-92 NSCLC, 34.3 µM. The TGI in the test on HCT-116 colon was 29.1 µM; in the test with MOLT-4 leukemia it was 69.7 µM.

With `COC(=O)N/N=C(\C)C(CN1CCOCC1)C(c1ccccc1)c1cc2ccccc2oc1=O` (stereo not given), the TGI with SNB-19 CNS, in the test with UACC-62 melanoma, in the test with HCT-15 colon, with BT-549 breast, with NCI/ADR-RES ovarian and in the test on SF-268 CNS was more than 100 µM each time. For the same molecule, the TGI in the test with HT29 colon, in the test on SK-MEL-28 melanoma, in the test with LOX IMVI melanoma, in the test with UO-31 renal, in the test on NCI-H460 lung and in the test on SK-OV-3 ovarian was more than 100 µM each time. Besides, the TGI with PC-3 prostate, with OVCAR-4 ovarian, in the test on 786-0 renal, in the test with CAKI-1 renal, in the test with MDA-MB-435 and in the test with HOP-92 NSCLC was more than 100 µM throughout. For the same molecule, the TGI in the test on HCT-116 colon and with MOLT-4 leukemia was more than 100 µM throughout.

`CO[C@H](c1ccccc1)[C@H](O)[C@](O)(c1ccccc1)P(=O)(OC)OC`: the TGI with SNB-19 CNS, in the test on UACC-62 melanoma, with HCT-15 colon, in the test with BT-549 breast, with NCI/ADR-RES ovarian and in the test on SF-268 CNS was more than 100 µM throughout. Also, the TGI in the test on HT29 colon, with SK-MEL-28 melanoma, in the test with LOX IMVI melanoma, in the test on UO-31 renal, in the test on NCI-H460 lung and in the test with SK-OV-3 ovarian was more than 100 µM throughout. The TGI with PC-3 prostate, in the test with OVCAR-4 ovarian, with 786-0 renal, in the test with CAKI-1 renal, in the test with MDA-MB-435 and with HOP-92 NSCLC was more than 100 µM throughout. Moreover, the TGI in the test on HCT-116 colon and in the test on MOLT-4 leukemia was more than 100 µM each time.
